Target: CREB-binding protein/Histone acetyltransferase p300 (Homo sapiens, UniProt Q09472+Q92793)
Test: Inhibition of human His-FLAG tagged CBP/EP300 (1082 to 1197 residues) using H4-TetraAc-biotin peptide as substrate after 90 mins by AlphaLISA method
Type: protein assay

Row | IC50 [µM] | Compound
1 | 14 | C[C@@H]1CC(=O)Nc2ccccc2N1
2 | 0.47 | C[C@@H]1CC(=O)Nc2cccc(-c3cnn(C(C)(C)C)c3)c2N1
